The text below walks through data of PubChem BioAssay AID1208 (EPA DSSTox, 2008).

SMILES strings stand for the structures. Activity calls are given as the source filed them.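 Rule for the calls: active = at least one rat sex group has a carcinogenic potency value and tumor site recorded; inconclusive = only rat studies were judged inadequate by the national testing program; inactive = no potency or tumor site, with negative rat experiments.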

In this data set the test system is rat chronic carcinogenicity bioassay, TD50. The experiment in a line: DSSTox (CPDBAS) Carcinogenic Potency Database Summary Rat Bioassay Results. Conditions: for Potency: active compounds read low; for outcome: TD50_Rat_Note: no positive results. An outline of the steps: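 Chronic long-term rat cancer bioassays from literature and NCI/NTP, taking the most positive result per sex. TD50 in mmol converted to a 1–100 Activity Score from log10(1/TD50). Mixtures lacking TD50 scored 50.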

The mark [1] stands for this setting: TargetSites_Rat_Female: no positive results.
Where [2] appears, read: TargetSites_Rat_Female: mammary gland.

For the compound `O=NN1CCSCC1`, the Potency (TD50_Rat_Note: TD50 is harmonic mean of more than one positive test, TargetSites_Rat_Female: esophagus, oral cavity) was 5.39 mg/kg/day.

For `Cc1ccc(OP(=O)(Oc2ccc(C)cc2)Oc2ccc(C)cc2)cc1`, the outcome under setting [1] is “inactive; no positive results”.

On to `CC/C(=C(/CC)c1ccc(O)cc1)c1ccc(O)cc1`, for which the Potency (TD50_Rat_Note: TD50 is harmonic mean of more than one positive test, greater than ten-fold variation among TD50 values for positive res, TargetSites_Rat_Female: liver, pituitary gland) was 0.223 mg/kg/day.

Consider `O=S1(=O)N=C(O)c2ccccc21`, for which the outcome was “inactive; no positive results”.

Regarding `O=NN1CCC[C@H]1C(=O)O`, the outcome under setting [1] is “inactive; no positive results”.

As to `CCCl`, the outcome under setting [1] was “inactive; no positive results”.

Consider `CCc1nc(N)nc(N)c1-c1ccc(Cl)cc1`, for which the outcome under setting [1] was “inactive; no positive results”.

Turning to `CCN(CC)c1cc2oc3cc(=[N+](CC)CC)c(C)cc-3c(-c3ccc(S(=O)(=O)O)cc3S(=O)(=O)[O-])c2cc1C`, under setting [1], the outcome is “inactive; no positive results”.

For the compound `CC1CN(/N=C/c2ccc([N+](=O)[O-])o2)C(=O)N1` (stereo not drawn), under setting [2], the Potency was 5.34 mg/kg/day.

Turning to `C=CC(=C)Cl`, for the setting “TD50_Rat_Note: TD50 is harmonic mean of more than one positive test, TargetSites_Rat_Female: kidney, mammary gland, oral cavity, thyroid gland”, the Potency was 12.5 mg/kg/day. The outcome under setting [1] was “inactive; no positive results”.

As to `CCC(O)OC(O)CC` (stereo not drawn), the outcome under setting [1] was “inactive; no positive results”.

Take `CNc1ccc(N(CCO)CCO)cc1[N+](=O)[O-]`: under “TargetSites_Rat_Female: lung”, the Potency was 702 mg/kg/day.

Regarding `c1ccc2occc2c1`, the Potency (TargetSites_Rat_Female: kidney) is 424 mg/kg/day.

Turning to `CCC(Cl)CCC(Cl)C(Cl)CC(Cl)C(Cl)C(Cl)CCl` (stereo not drawn), the Potency (TD50_Rat_Note: TD50 is harmonic mean of more than one positive test, TD50_Rat_mmol was not calculated for this mixture, but Activiity S, TargetSites_Rat_Female: liver, thyroid gland) is 222 mg/kg/day.

Regarding `Nc1ccc(-c2ccc(N)c(Cl)c2)cc1Cl`, the Potency (TD50_Rat_Note: TD50 is harmonic mean of more than one positive test, TargetSites_Rat_Female: mammary gland) is 28.1 mg/kg/day.

For the compound `NC(=O)N(CCO)N=O`, for the setting “TD50_Rat_Note: TD50 is harmonic mean of more than one positive test, greater than ten-fold variation among TD50 values for positive res, TargetSites_Rat_Female: hematopoietic system, mammary gland”, the Potency is 0.244 mg/kg/day.

In the case of `C=CCN(CC(O)CO)N=O` (stereo not drawn), the Potency (TargetSites_Rat_Female: esophagus, nasal cavity) was 0.825 mg/kg/day.

On to `CN1C(C(=O)Nc2ccccn2)=C(O)c2ccccc2S1(=O)=O`, for which the outcome was “inactive; no positive results”.

On to `COP(=S)(OC)SCn1nnc2ccccc2c1=O`, for which the outcome under setting [1] was “inactive; no positive results”.

On to `Cc1ccccc1N`, for which, where the note is “TD50_Rat_Note: TD50 is harmonic mean of more than one positive test, TargetSites_Rat_Female: bone, mammary gland, urinary bladder, vascular system”, the Potency was 43.6 mg/kg/day.

For the compound `CC(C)(Oc1ccc(C2CCCc3ccccc32)cc1)C(=O)O` (stereo not drawn), the Potency (TD50_Rat_Note: TD50 is harmonic mean of more than one positive test, greater than ten-fold variation among TD50 values for positive res, TargetSites_Rat_Female: liver) is 11 mg/kg/day.

`Nc1ccc(Cl)c(N)c1`: the Potency under setting [1] was 315 mg/kg/day.

Take `C[C@@H]1C/C=C/C=C/C=C/C=C/[C@H](O[C@@H]2O[C@H](C)[C@@H](O)[C@H](N)[C@@H]2O)C[C@@H]2O[C@](O)(C[C@@H](O)C[C@H]3O[C@@H]3/C=C/C(=O)O1)C[C@H](O)[C@H]2C(=O)O`: the outcome under setting [1] is “inactive; no positive results”.

For `Cc1cccc(N=Nc2ccc(N(C)C)cc2)c1`, the Potency (TD50_Rat_Note: TD50 is harmonic mean of more than one positive test) was 3.28 mg/kg/day.

Consider `CC(=O)O[C@@H]1[C@@H](O)C2OC3C=C(C)C(=O)C(O)[C@@]3(CO)[C@]1(C)[C@]21CO1` (stereo partly drawn), for which the outcome was “inactive; no positive results”.

In the case of `Oc1cccc2cccnc12`, the outcome under setting [1] was “inactive; no positive results”.

On to `N=c1ccn2c(n1)O[C@H]1[C@H](O)[C@@H](CO)O[C@H]12`, for which the outcome under setting [1] was “inactive; no positive results”.

On to `O=C1CCN([C@@H]2O[C@H](CO)[C@@H](O)[C@H]2O)C(=O)N1`, for which the outcome is “inactive; no positive results”.

With `N#[N+]c1cc(CCN)ccc1[O-]`, the Potency was 37.6 mg/kg/day.

Take `COc1cc(-c2ccc(N=C=O)c(OC)c2)ccc1N=C=O`: the Potency (TD50_Rat_Note: TD50 is harmonic mean of more than one positive test, TargetSites_Rat_Female: hematopoietic system, uterus) was 1630 mg/kg/day.

`Nc1ccccc1-c1ccccc1`: the outcome under setting [1] is “inactive; no positive results”.

Take `CC1(C)C(=O)NC(=O)NC1=O`: the outcome was “inactive; no positive results”.

Regarding `OC(O)C(Cl)(Cl)Cl`, the outcome was “inactive; no positive results”.

For the compound `CN(C)C(=S)SSC(=S)N(C)C`, the outcome under setting [1] was “inactive; no positive results”.

`O=C(O)c1cc(=O)[nH]c(=O)[nH]1`: the outcome was “inactive; no positive results”.

Consider `N#CS`, for which the outcome under setting [1] was “inactive; no positive results”.

As for `CC(=O)Nc1cccc2c1Cc1ccccc1-2`, under setting [1], the outcome was inactive.

Consider `CCCCCCCCCCCCCCN(C)N=O`, for which the Potency (TD50_Rat_Note: harmonic mean of TD50 includes a value for upper 99% confidence limit from study with 100% tumor incidence but no lifeta) is 1.65 mg/kg/day.

Turning to `CC[N+](=O)[O-]`, under setting [1], the outcome was “inactive; no positive results”.

As to `Cc1cccc(Nc2cc(Cl)nc(SCC(=O)NCCO)n2)c1C`, the Potency is 6.49 mg/kg/day.

For the compound `CN(C)/N=N/c1nc[nH]c1C(N)=O`, the Potency (TargetSites_Rat_Female: hematopoietic system, mammary gland, uterus) is 0.71 mg/kg/day.

For the compound `COc1c(Cl)c(Cl)c([N+](=O)[O-])c(Cl)c1Cl`, the outcome under setting [1] is “inactive; no positive results”.

For the compound `Nc1cc(S(=O)(=O)[O-])cc2cc(S(=O)(=O)[O-])c(N=Nc3ccc(-c4ccc(N=Nc5c(S(=O)(=O)[O-])cc6cc(S(=O)(=O)[O-])cc(N)c6c5O)c(O)c4)cc3O)c(O)c12.[Cu].[Cu].[Na+].[Na+].[Na+].[Na+]`, under setting [1], the Potency was 1570 mg/kg/day.

Consider `CNC(=O)CSP(=S)(OC)OC`, for which the outcome under setting [1] was “inactive; no positive results”.

With `Nc1ccc(N(CCO)CCO)cc1`, the outcome under setting [1] is “inactive; no positive results”.

`Nc1ncn([C@@H]2O[C@H](CO)[C@@H](O)[C@H]2O)c(=O)n1`: where the note is “TD50_Rat_Note: positive test results only by intraperitoneal or intravenous injection, TargetSites_Rat_Female: NTP bioassay inadequate”, the Potency is 0.17 mg/kg/day.

`Cn1cc[nH]c1=S`: the Potency (TD50_Rat_Note: TD50 is harmonic mean of more than one positive test, TargetSites_Rat_Female: thyroid gland) was 1.14 mg/kg/day.

Regarding `CC1(C)COC1=O`, where the note is “TD50_Rat_Note: TD50 is harmonic mean of more than one positive test, TargetSites_Rat_Female: stomach”, the Potency is 211 mg/kg/day.

`CCN(CC)C(=S)S[Te](SC(=S)N(CC)CC)(SC(=S)N(CC)CC)SC(=S)N(CC)CC`: the outcome under setting [1] was “inactive; no positive results”.

As to `OCC(CO)(CBr)CBr`, the Potency (TD50_Rat_Note: TD50 is harmonic mean of more than one positive test, TargetSites_Rat_Female: esophagus, mammary gland, oral cavity, thyroid gland) is 111 mg/kg/day.

For `NC1=NCN([C@@H]2O[C@H](CO)[C@@H](O)[C@H]2O)C(=O)N1`, the outcome was “inactive; no positive results”.

As for `Nc1ccc2nc3ccccn3c2n1`, the Potency (TD50_Rat_Note: TD50 is harmonic mean of more than one positive test, TargetSites_Rat_Female: clitoral gland, ear Zymbals gland, large intestine, liver, small intestine) is 42.3 mg/kg/day.

Turning to `CN(N=O)C(=O)c1ccccc1C(=O)N(C)N=O`, the outcome is “inactive; no positive results”.

`CN(CCCC(O)c1cccnc1)N=O` (stereo not drawn): the Potency is 0.103 mg/kg/day.

With `[Cl-].[Cl-].[Hg+2]`, the Potency under setting [1] is 3.12 mg/kg/day.

`CC(C)(C)NC[C@H](O)COc1cccc2c1CCCC2=O`: the outcome under setting [1] is “inactive; no positive results”.

For `CC[C@H]1OC(=O)[C@H](C)[C@@H](O[C@H]2C[C@@](C)(OC)[C@@H](O)[C@H](C)O2)[C@H](C)[C@@H](O[C@@H]2O[C@H](C)C[C@H](N(C)C)[C@H]2O)[C@](C)(O)C[C@@H](C)C(=O)[C@H](C)[C@@H](O)[C@]1(C)O`, under setting [1], the outcome was “inactive; no positive results”.

As to `C=CC`, the outcome under setting [1] is “inactive; no positive results”.

Take `COc1cc2c(c3oc4cccc(O)c4c(=O)c13)C1C=COC1O2` (stereo not drawn): where the note is “TD50_Rat_Note: TD50 is harmonic mean of more than one positive test, greater than ten-fold variation among TD50 values for positive res, TargetSites_Rat_BothSexes: liver”, the Potency was 0.152 mg/kg/day.

Consider `Nc1ccc(N=Nc2ccccc2)c(N)n1`, for which the Potency (TD50_Rat_Note: TD50 is harmonic mean of more than one positive test, TargetSites_Rat_Female: large intestine) is 303 mg/kg/day.

On to `CC(O)COC(C)(C)C` (stereo not drawn), for which the outcome under setting [1] is “inactive; no positive results”.

In the case of `CCOC(=O)CC(SP(=O)(OC)OC)C(=O)OCC` (stereo not drawn), the outcome under setting [1] was “inactive; no positive results”.

As for `O=C1CN(/N=C/c2ccc([N+](=O)[O-])o2)C(=O)N1`, the Potency under setting [1] was 163 mg/kg/day.

With `N[C@@H](CS)C(=O)O`, under setting [1], the outcome was “inactive; no positive results”.

In the case of `CCCOC(=O)c1cc(O)c(O)c(O)c1`, the outcome under setting [1] is “inactive; no positive results”.

In the case of `Cc1[nH]cnc1CSCCN=C(NC#N)N(C)N=O`, the outcome under setting [1] was “inactive; no positive results”.

With `C=CCOCC1CO1` (stereo not drawn), under setting [1], the outcome is “inactive; no positive results”.

For `CCNc1nc(Cl)nc(NC(C)(C)C#N)n1`, the Potency under setting [2] is 6.33 mg/kg/day.

As to `O=S1(=O)CC=CC1`, the outcome under setting [1] was “inactive; no positive results”.

As for `CNC(=O)O/N=C(\SC)C(=O)N(C)C`, under setting [1], the outcome was “inactive; no positive results”.

For `C1CCOC1`, under setting [1], the Potency was 407 mg/kg/day.

Take `CN(C)c1ccc(N=NS(=O)(=O)O)cc1`: the outcome under setting [1] is “inactive; no positive results”.

Take `Cc1ccc([N+](=O)[O-])cc1N`: the outcome under setting [1] is “inactive; no positive results”.

For the compound `Cc1cccc2cccnc12`, the outcome under setting [1] is “inactive; no positive results”.

`CCN(C)N=O`: under setting [1], the Potency was 0.0503 mg/kg/day.

For `CCCC(CCC)C(=O)O`, the Potency (TargetSites_Rat_Female: uterus) is 1300 mg/kg/day.

In the case of `CCCCCCCCCCCCN(C)N=O`, the Potency (TD50_Rat_Note: TD50 is harmonic mean of more than one positive test, harmonic mean of TD50 includes a value for upper 99% confidence li, TargetSites_Rat_Female: urinary bladder) was 0.537 mg/kg/day.
